{
  "source": "the supplement of paper PMC10307832",
  "experiment_in_all_cases": "relative viability (nuclei count vs DMSO), 5 days (fraction); higher = more cells survive",
  "key": {"NCI-H2170": {"system": "NCI-H2170", "summary_of_the_method": "(§1)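 A single step with final 0.05% Triton X-100, 1% formaldehyde and 1 ug/ml Hoechst fixed the cells and stained nuclei 5 days after treatment. Lung cancer cell lines in 1536-well plates had been treated by pin tool the day after seeding with one drug alone or a fixed anchor-drug dose plus five library-drug doses (not always all listed) in √10 steps, and nuclei were counted on 4× images. Relative viability is the ratio of nuclei in treated wells to nuclei in vehicle wells, taken as the median of duplicate plates.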"}, "NCI-H1793": {"system": "NCI-H1793", "summary_of_the_method": "as §1"}, "NCI-H1734": {"system": "NCI-H1734", "summary_of_the_method": "as §1"}, "NCI-H2009": {"system": "NCI-H2009", "summary_of_the_method": "as §1"}, "EKVX": {"system": "EKVX", "summary_of_the_method": "as §1"}, "NCI-H1395": {"system": "NCI-H1395", "summary_of_the_method": "as §1"}, "HARA": {"system": "HARA", "summary_of_the_method": "as §1"}, "NCI-H2347": {"system": "NCI-H2347", "summary_of_the_method": "as §1"}, "NCI-H647": {"system": "NCI-H647", "summary_of_the_method": "as §1"}, "NCI-H2228": {"system": "NCI-H2228", "summary_of_the_method": "as §1"}, "HOP-62": {"system": "HOP-62", "summary_of_the_method": "as §1"}, "UMC-11": {"system": "UMC-11", "summary_of_the_method": "as §1"}, "NCI-H1355": {"system": "NCI-H1355", "summary_of_the_method": "as §1"}, "COR-L 105": {"system": "COR-L 105", "summary_of_the_method": "as §1"}, "PC-14": {"system": "PC-14", "summary_of_the_method": "as §1"}, "NCI-H1993": {"system": "NCI-H1993", "summary_of_the_method": "as §1"}, "COR-L23": {"system": "COR-L23", "summary_of_the_method": "as §1"}, "NCI-H358": {"system": "NCI-H358", "summary_of_the_method": "as §1"}, "NCI-H838": {"system": "NCI-H838", "summary_of_the_method": "as §1"}, "SK-MES-1": {"system": "SK-MES-1", "summary_of_the_method": "as §1"}, "NCI-H1755": {"system": "NCI-H1755", "summary_of_the_method": "as §1"}, "HCC-15": {"system": "HCC-15", "summary_of_the_method": "as §1"}},
  "data": [
    {"smiles": "Oc1nc(-c2ccc(C(F)(F)F)cc2)nc2c1CSCC2", "note": "[XAV939] + CS(=O)(=O)CCNCc1ccc(-c2ccc3ncnc(Nc4ccc(OCc5cccc(F)c5)c(Cl)c4)c3c2)o1 [Lapatinib] (partner 2 µM)", "values": [
      {"measurement": "relative viability", "setting": "NCI-H2170; first compound 0.08 µM", "result": 0.259},
      {"measurement": "relative viability", "setting": "NCI-H2170; first compound 0.253 µM", "result": 0.263},
      {"measurement": "relative viability", "setting": "NCI-H2170; first compound 0.8 µM", "result": 0.267},
      {"measurement": "relative viability", "setting": "NCI-H2170; first compound 2.53 µM", "result": 0.261},
      {"measurement": "relative viability", "setting": "NCI-H1793; first compound 0.08 µM", "result": 0.892},
      {"measurement": "relative viability", "setting": "NCI-H1793; first compound 0.253 µM", "result": 0.602},
      {"measurement": "relative viability", "setting": "NCI-H1793; first compound 0.8 µM", "result": 0.714},
      {"measurement": "relative viability", "setting": "NCI-H1793; first compound 2.53 µM", "result": 0.877},
      {"measurement": "relative viability", "setting": "NCI-H1734; first compound 0.08 µM", "result": 1.34},
      {"measurement": "relative viability", "setting": "NCI-H1734; first compound 0.253 µM", "result": 0.9},
      {"measurement": "relative viability", "setting": "NCI-H1734; first compound 0.8 µM", "result": 0.814},
      {"measurement": "relative viability", "setting": "NCI-H1734; first compound 2.53 µM", "result": 0.986},
      {"measurement": "relative viability", "setting": "NCI-H2009; first compound 0.08 µM", "result": 1.08},
      {"measurement": "relative viability", "setting": "NCI-H2009; first compound 0.253 µM", "result": 0.819},
      {"measurement": "relative viability", "setting": "NCI-H2009; first compound 0.8 µM", "result": 0.842},
      {"measurement": "relative viability", "setting": "NCI-H2009; first compound 2.53 µM", "result": 0.771},
      {"measurement": "relative viability", "setting": "EKVX; first compound 0.08 µM", "result": 0.193},
      {"measurement": "relative viability", "setting": "EKVX; first compound 0.253 µM", "result": 0.181},
      {"measurement": "relative viability", "setting": "EKVX; first compound 0.8 µM", "result": 0.162},
      {"measurement": "relative viability", "setting": "EKVX; first compound 2.53 µM", "result": 0.125},
      {"measurement": "relative viability", "setting": "NCI-H1395; first compound 0.08 µM", "result": 0.976},
      {"measurement": "relative viability", "setting": "NCI-H1395; first compound 0.253 µM", "result": 0.919},
      {"measurement": "relative viability", "setting": "NCI-H1395; first compound 0.8 µM", "result": 0.985},
      {"measurement": "relative viability", "setting": "NCI-H1395; first compound 2.53 µM", "result": 1.01},
      {"measurement": "relative viability", "setting": "HARA; first compound 0.08 µM", "result": 0.73},
      {"measurement": "relative viability", "setting": "HARA; first compound 0.253 µM", "result": 0.419},
      {"measurement": "relative viability", "setting": "HARA; first compound 0.8 µM", "result": 0.402},
      {"measurement": "relative viability", "setting": "HARA; first compound 2.53 µM", "result": 0.606},
      {"measurement": "relative viability", "setting": "NCI-H2347; first compound 0.08 µM", "result": 0.944},
      {"measurement": "relative viability", "setting": "NCI-H2347; first compound 0.253 µM", "result": 0.708},
      {"measurement": "relative viability", "setting": "NCI-H2347; first compound 0.8 µM", "result": 0.805},
      {"measurement": "relative viability", "setting": "NCI-H2347; first compound 2.53 µM", "result": 0.672},
      {"measurement": "relative viability", "setting": "NCI-H647; first compound 0.08 µM", "result": 0.91},
      {"measurement": "relative viability", "setting": "NCI-H647; first compound 0.253 µM", "result": 0.854},
      {"measurement": "relative viability", "setting": "NCI-H647; first compound 0.8 µM", "result": 0.987},
      {"measurement": "relative viability", "setting": "NCI-H647; first compound 2.53 µM", "result": 0.921},
      {"measurement": "relative viability", "setting": "NCI-H2228; first compound 0.08 µM", "result": 1.03},
      {"measurement": "relative viability", "setting": "NCI-H2228; first compound 0.253 µM", "result": 0.922},
      {"measurement": "relative viability", "setting": "NCI-H2228; first compound 0.8 µM", "result": 0.848},
      {"measurement": "relative viability", "setting": "NCI-H2228; first compound 2.53 µM", "result": 0.928},
      {"measurement": "relative viability", "setting": "HOP-62; first compound 0.08 µM", "result": 1.1},
      {"measurement": "relative viability", "setting": "HOP-62; first compound 0.253 µM", "result": 0.963},
      {"measurement": "relative viability", "setting": "HOP-62; first compound 0.8 µM", "result": 0.918},
      {"measurement": "relative viability", "setting": "HOP-62; first compound 2.53 µM", "result": 0.735},
      {"measurement": "relative viability", "setting": "UMC-11; first compound 0.08 µM", "result": 1.15},
      {"measurement": "relative viability", "setting": "UMC-11; first compound 0.253 µM", "result": 0.742},
      {"measurement": "relative viability", "setting": "UMC-11; first compound 0.8 µM", "result": 0.97},
      {"measurement": "relative viability", "setting": "UMC-11; first compound 2.53 µM", "result": 0.921},
      {"measurement": "relative viability", "setting": "NCI-H1355; first compound 0.08 µM", "result": 1.02},
      {"measurement": "relative viability", "setting": "NCI-H1355; first compound 0.253 µM", "result": 0.857},
      {"measurement": "relative viability", "setting": "NCI-H1355; first compound 0.8 µM", "result": 0.875},
      {"measurement": "relative viability", "setting": "NCI-H1355; first compound 2.53 µM", "result": 0.729},
      {"measurement": "relative viability", "setting": "COR-L 105; first compound 0.08 µM", "result": 0.426},
      {"measurement": "relative viability", "setting": "COR-L 105; first compound 0.253 µM", "result": 0.347},
      {"measurement": "relative viability", "setting": "COR-L 105; first compound 0.8 µM", "result": 0.37},
      {"measurement": "relative viability", "setting": "COR-L 105; first compound 2.53 µM", "result": 0.301},
      {"measurement": "relative viability", "setting": "PC-14; first compound 0.08 µM", "result": 0.301},
      {"measurement": "relative viability", "setting": "PC-14; first compound 0.253 µM", "result": 0.307},
      {"measurement": "relative viability", "setting": "PC-14; first compound 0.8 µM", "result": 0.262},
      {"measurement": "relative viability", "setting": "PC-14; first compound 2.53 µM", "result": 0.266},
      {"measurement": "relative viability", "setting": "NCI-H1993; first compound 0.8 µM", "result": 0.866},
      {"measurement": "relative viability", "setting": "NCI-H1993; first compound 2.53 µM", "result": 0.702},
      {"measurement": "relative viability", "setting": "COR-L23; first compound 0.08 µM", "result": 1.04},
      {"measurement": "relative viability", "setting": "COR-L23; first compound 0.253 µM", "result": 0.924},
      {"measurement": "relative viability", "setting": "COR-L23; first compound 0.8 µM", "result": 0.932},
      {"measurement": "relative viability", "setting": "COR-L23; first compound 2.53 µM", "result": 0.89},
      {"measurement": "relative viability", "setting": "NCI-H358; first compound 0.08 µM", "result": 0.502},
      {"measurement": "relative viability", "setting": "NCI-H358; first compound 0.253 µM", "result": 0.469},
      {"measurement": "relative viability", "setting": "NCI-H358; first compound 0.8 µM", "result": 0.494},
      {"measurement": "relative viability", "setting": "NCI-H358; first compound 2.53 µM", "result": 0.434},
      {"measurement": "relative viability", "setting": "NCI-H838; first compound 0.08 µM", "result": 1.13},
      {"measurement": "relative viability", "setting": "NCI-H838; first compound 0.253 µM", "result": 0.918},
      {"measurement": "relative viability", "setting": "NCI-H838; first compound 0.8 µM", "result": 0.949},
      {"measurement": "relative viability", "setting": "NCI-H838; first compound 2.53 µM", "result": 0.767},
      {"measurement": "relative viability", "setting": "SK-MES-1; first compound 0.08 µM", "result": 0.499},
      {"measurement": "relative viability", "setting": "SK-MES-1; first compound 0.253 µM", "result": 0.389},
      {"measurement": "relative viability", "setting": "SK-MES-1; first compound 0.8 µM", "result": 0.424},
      {"measurement": "relative viability", "setting": "SK-MES-1; first compound 2.53 µM", "result": 0.406},
      {"measurement": "relative viability", "setting": "NCI-H1755; first compound 0.08 µM", "result": 0.92},
      {"measurement": "relative viability", "setting": "NCI-H1755; first compound 0.253 µM", "result": 0.87},
      {"measurement": "relative viability", "setting": "NCI-H1755; first compound 0.8 µM", "result": 0.896},
      {"measurement": "relative viability", "setting": "NCI-H1755; first compound 2.53 µM", "result": 0.955},
      {"measurement": "relative viability", "setting": "HCC-15; first compound 0.08 µM", "result": 1.02},
      {"measurement": "relative viability", "setting": "HCC-15; first compound 0.253 µM", "result": 0.774},
      {"measurement": "relative viability", "setting": "HCC-15; first compound 0.8 µM", "result": 0.829},
      {"measurement": "relative viability", "setting": "HCC-15; first compound 2.53 µM", "result": 0.806}
    ]}
  ]
}
